In patent US9096687B2, “Inhibition of inflammation using antagonists of MUC1” (DANA-FARBER CANCER INSTITUTE, INC., priority 2009, dated 2015):
Square brackets hold non-standard residues; d marks the D form. Ends that are not written are not given here.

How the values were obtained:
[1] = test system: MUC1-C levels in the nucleus; assay: MUC1-C levels in the nucleus after peptide uptake; assay type: cell-based; settings: after uptake of the peptide
From the text: (§1) Previous Studies. Overexpression of MUC1 is sufficient for the induction of anchorage-independent growth and tumorigenicity (Li et al., 2003a; Huang et al., 2003; Huang et al., 2005). […] MUC1 forms oligomers and the CQC motif is necessary for this oligomerization (Leng et al., 2007). Moreover, oligomer formation is necessary for targeting of the MUC1-C subunit to the nucleus (Leng et al., 2007). The inventors synthesized a MUC1-derived peptide that contains the CQC motif and a poly-Arg cell delivery domain for entry into cells.

[2] = test system: MUC1-C and STAT3 occupancy of the MUC1 promoter; assay: Constitutive occupancy of the MUC1 promoter in breast cancer cells; assay type: cell-based
Description: (§2) MUC1-C Promotes STAT3-Mediated Transcription. […] In concert with these observations, silencing MUC1 in breast cancer cells was associated with decreases in (i) constitutive STAT3 occupancy on the STAT binding site, and (ii) constitutive activation of the MUC1 promoter. To provide further support for an auto-inductive loop, studies were performed with GO-201, an inhibitor of MUC1-C oligomerization (Raina, 2009). […] Moreover, GO-201 blocked IL-6 induced activation of the MUC1 promoter. […] These findings thus provide support for the potential importance of the MUC1-C-STAT3 interaction in targeting STAT3 to the MUC1 promoter and promoting activation of the MUC1 gene in an auto-inductive loop (FIG. 7D).

[3] = test system: MUC1-C and NF-κB p65 occupancy of the NF-κB binding motif in the MUC1 promoter; assay: ChIP of MUC1 promoter NF-κB binding motif in TNFα-stimulated MCF-10A cells; settings: 5 μM peptide added each 24 h for 72 h
Description: MCF-10A cells were left untreated or stimulated with TNFα in the presence of 5 μM MUC1/CQC or MUC1/AQA peptide added each 24 h for 72 h. […] (FIGS. 6B and 6C) MCF-10A cells were left untreated or stimulated with TNFα in the presence of 5 μM MUC1/CQC or MUC1/AQA peptide added each 24 h for 72 h. Soluble chromatin was precipitated with anti-MUC1-C (left) or anti-p65 (right) and then analyzed for MUC1 NF-κB binding motif promoter sequences (FIG. 6B).
ChIP Assays. Soluble chromatin was prepared as described (Wei et al., 2006) and precipitated with anti-p65, anti-MUC1-C or a control non-immune IgG. […] For PCR, 2 μl from a 50 μl DNA extraction was used with 25-35 cycles of amplification.

tumor growth = assay: Administration to tumor bearing mice
From the text: as §1

[4] = test system: carcinoma cells overexpressing MUC1; assay: Growth arrest and necrosis of cells exposed to peptide; assay type: cell-based; settings: for growth arrest and induction of necrosis: exposure of cells
From the text: as §1

[5] = biological target: T1, TNFα-induced interaction between MUC1-C and NF-κB p65 (Homo sapiens, UniProt P15941); assay: Anti-p65 co-immunoprecipitation from TNFα-stimulated MCF-10A cells; assay type: cell-based; settings: 5 μM peptide added each 24 h for 72 h
T1 construct: C-terminal subunit (MUC1 C-ter, MUC1-C), which includes a 58 amino acid extracellular region; endogenous in cells; host or cells: MCF-10A
T1 sequence (P15941 1098-1255 limits assumed): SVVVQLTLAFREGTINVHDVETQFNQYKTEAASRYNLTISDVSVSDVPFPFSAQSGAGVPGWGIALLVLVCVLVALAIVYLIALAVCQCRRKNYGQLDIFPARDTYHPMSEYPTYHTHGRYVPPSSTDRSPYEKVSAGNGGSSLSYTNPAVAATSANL
Description: Cell Culture. Human ZR-75-1 breast cancer and U-937 leukemia cells were grown in RPMI 1640 medium containing 10% heat-inactivated fetal bovine serum (FBS), 100 units/ml penicillin, 100 μg/ml streptomycin and 2 mM L-glutamine. Human HeLa cervical and MCF-7 breast carcinoma cells were grown in Dulbecco's modified Eagle's medium with 10% FBS, antibiotics and L-glutamine. Human MCF-10A breast epithelial cells were grown in mammary epithelial cell growth medium (MEGM; Lonza, Walkersville, Md.) and treated with 20 ng/ml TNFα (BD Biosciences, San Jose, Calif.). Transfection of the MCF-10A cells with siRNA pools (Dharmacon, Lafayette, Colo.) was performed in the presence of Lipofectamine 2000 (Invitrogen, Carlsbad, Calif.). Cells were treated with 5 μM MUC1/CQC and MUC1/AQA peptides synthesized by the MIT Biopolymer Laboratory (Cambridge, Mass.).
Immunoprecipitation and immunoblotting. Lysates from sub-confluent cells were prepared as described (Ren et al., 2004). Soluble proteins were precipitated with anti-NF-κB p65 (Santa Cruz Biotechnology, Santa Cruz, Calif.). […] Immune complexes were detected with horseradish peroxidase-conjugated secondary antibodies (GE Healthcare Biosciences, Piscataway, N.J.) and enhanced chemiluminescence (GE Healthcare).

[6] = test system: STAT3 and MUC1-C on the MUC1 promoter; assay: ChIP of MUC1 promoter STAT binding site in IL-6-stimulated MCF-10A cells; assay type: cell-based, Human; settings: 5 mM peptide added each 24 h for 72 h
[7] = biological target: T2, interaction between MUC1-CD and NF-κB p65 (Homo sapiens, UniProt P15941); assay: In vitro binding of GST-MUC1-CD to purified NF-κB p65 (glutathione bead adsorbates, anti-p65 immunoblot); settings: 1 h at room temperature
T2 construct: a GST fusion protein containing the 72 amino acid MUC1-CD; made in house
T2 sequence (P15941 1184-1255): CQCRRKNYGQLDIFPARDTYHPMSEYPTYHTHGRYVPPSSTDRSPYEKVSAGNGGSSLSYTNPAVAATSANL
Description: In Vitro Binding Assays. GST, GST-MUC1-CD, GST-MUC1-CD(1-45) and GST-MUC1-CD(46-72) were prepared as described (Ahmad et al., 2007) and incubated with p65 and certain p65 deletion mutants. Purified GST-MUC1-CD was cleaved with thrombin to remove the GST moiety. GST-IκBα (Millipore, Billerica, Mass.) was incubated with p65(186-306) for 2 h at 25° C. in the absence and presence of purified MUC1-CD. Adsorbates to glutathione-conjugated beads were analyzed by immunoblotting.

MUC1-CD oligomerization = biological target: T3, MUC1-CD oligomerization (Homo sapiens, UniProt P15941); assay: Oligomerization of MUC1-CD in vitro; assay type: biochemical
T3 construct: contains a 72-amino acid cytoplasmic domain (MUC1-CD)
T3 sequence (P15941 1184-1255): T2 sequence (P15941 1184-1255)
From the text: as §1

MUC1 promoter = assay: Constitutive activation of the MUC1 promoter in breast cancer cells; assay type: cell-based
Description: as §2

[8] = biological target: T4, interaction between MUC1-CD and STAT3 (Homo sapiens, UniProt P15941); assay: In vitro binding of GST-STAT3 to purified MUC1-CD; settings: 1 h at room temperature
T4 construct: a GST fusion protein containing the 72 amino acid MUC1-CD; GST (cleaved yes); made in house
T4 sequence (P15941 1184-1255): T2 sequence (P15941 1184-1255)

pMUC1-Luc reporter = pMUC1-Luc reporter assay in IL-6-stimulated MCF-10A cells; assay type: cell-based, Human
Description: Luciferase Assays. Cells were transfected with NFκB-Luc (Ahmad et al., 2007) or pMUC1-Luc (Yin et al., 2003) and SV-40-Renilla-Luc (Promega, Madison, Wis.) in the presence of Lipofectamine. After 48 h, the cells were lysed in passive lysis buffer. Lysates were analyzed for firefly and Renilla luciferase activities using the dual luciferase assay kit (Promega).

[9] = test system: TNFα-induced MUC1 and Bcl-xL expression; assay: Immunoblot of lysates from TNFα-stimulated MCF-10A cells; assay type: cell-based, Human; settings: 5 μM peptide added each 24 h for 72 h
Description: Immunoprecipitation and immunoblotting. Lysates from sub-confluent cells were prepared as described (Ren et al., 2004). Soluble proteins were precipitated with anti-NF-κB p65 (Santa Cruz Biotechnology, Santa Cruz, Calif.). The immunoprecipitates and cell lysates were subjected to immunoblotting with anti-p65, anti-p65 (180-306) (Millipore, Billerica, Mass.) anti-MUC1-C (Ab5; Lab Vision, Fremont, Calif.), anti-IκBα (Santa Cruz Biotechnology), anti-Bcl-xL (Santa Cruz Biotechnology) and anti-α-actin (Sigma, St. Louis, Mo.). Immune complexes were detected with horseradish peroxidase-conjugated secondary antibodies (GE Healthcare Biosciences, Piscataway, N.J.) and enhanced chemiluminescence (GE Healthcare).

[10] = biological target: T5, IL-6-induced interaction between MUC1-C and STAT3 (Homo sapiens, UniProt P15941); assay: Anti-STAT3 co-immunoprecipitation from IL-6-stimulated MCF-10A cells; assay type: cell-based; parameters: dose or concentration left out as unconfirmed; settings: peptide added each 24 h for 72 h
T5 construct: C-terminal subunit (MUC1 C-ter, MUC1-C), which includes a 58 amino acid extracellular region; endogenous in cells; host or cells: MCF-10A
T5 sequence (P15941 1098-1255 limits assumed): T1 sequence (P15941 1098-1255 limits assumed)

[11] = test system: ZR-75-1 breast carcinoma cells; assay: Proliferation of ZR-75-1 breast carcinoma cells (trypan blue exclusion); assay type: cell-based, Human; settings: 5 μM every day for 4 days
Description: FIG. 17: Effect of different MUC1-CD CQC-region peptides on the growth of hormone-dependent breast carcinoma cells. To determine whether exposure to different MUC1-CD CQC-region containing peptides affect growth, ZR-75-1 breast carcinoma cells were treated with 5 μM of different peptides for 4 days and monitored for cell proliferation.
FIG. 21: Effect of Shorter GO-203 peptides on proliferation of ZR-75-1 Breast Cancer Cells. Human ZR-75-1 breast cancer cells were grown in RPMI1640 supplemented with 10% heat-inactivated fetal bovine serum, 100 units/ml penicillin, 100 μg/ml streptomycin. Cells were treated with different peptides at 5 μM every day for four days and cell viability was determined by trypan blue exclusion.
Multiple tumor cell lines (ZR-75-1 Hormone-dependent Breast Carcinoma; MDA-MB-231 Triple-Negative Breast Carcinoma; A549 Non-small Cell Lung Carcinoma; H-1975 Non-small Cell Lung Carcinoma) were grown in RPMI-1640 supplemented with 10% heat-inactivated fetal bovine serum, 100 units/mL penicillin and 100 μg/mL streptomycin and 2 mmol/L L-glutamine. Cells were treated separately with 5 μM of different analogs of GO-203 (FIG. 15) for 3 to 7 days and viability was determined by trypan blue exclusion. The proliferation of different cell lines was compared with cells treated with vehicle only.

[12] = test system: multiple carcinoma cell lines; assay: Growth and killing of carcinoma cell lines by L-amino acid MUC1 C-terminal peptides; assay type: cell-based
From the text: GO-203 analogs. The inventors' recent studies have shown that a MUC1 C-terminal peptide (CQCRRKNYGQLDIFP; SEQ ID NO:3) is active in inhibiting growth of multiple carcinoma cell lines. […] However, these MUC1-C-terminal peptides consists of L-amino acids. […] Consequently, they have generated an all-dextro form of the above described shorter MUC1 C-terminal peptide, in which the L-amino acids were changed to D-amino acids (GO-203). Moreover, to determine the minimum amino acid residues from the MUC1-C-terminal region that are required to retain the cell killing activity, they have also generated many different versions of GO-203 as described in FIG. 15.

[13] = test system: H-1975 non-small cell lung carcinoma cell line; settings: H-1975 cells, 5 μM, 3 days
Description: H-1975 non-small cell lung carcinoma cell line was grown in DMEM with 10% heat-inactivated fetal bovine serum with 100 units/mL penicillin, 100 μg/ml streptomycin and 2 mmol/L L-glutamine. Cells were re-seeded one day before treatments. Cells were treated with 5 μM GO-200-2B for 3 days and cell viability was determined by trypan blue exclusion.
Moreover, another non-small cell lung carcinoma cell line, H-1975, was treated with 5 μM GO-200-2B for 3 days and monitored for cell growth as well as cell death.

severe sepsis = settings: decreased from about 31%; cited from earlier work
[14] = tumor bearing mice, 10 and 30 mg/kg/d for 21 d

Molecule: MUC1/CQC: peptide corresponding to MUC1-CD(1-15) (SEQ ID NO:3, CQCRRKNYGQLDIFP) with poly D-arginine transduction domain; inhibitor of MUC1-C oligomerization (cysteine pairing not given here; also: poly D-arginine transduction domain, not placed)
- MUC1-C levels in the nucleus [1]: down-regulation
- constitutive occupancy of the MUC1 promoter by MUC1-C and STAT3 [2]: inhibits
- TNFα-induced MUC1-C and NF-κB p65 occupancy of the NF-κB binding motif [3]: decreased
- tumor growth following treatment (tumor growth; 50 mg/kg/d for 7 d): tumor growth remains arrested for extended periods
- tolerability (tumor growth; [14]): well-tolerated without apparent acute toxicities
- tumor growth (tumor growth; [14]): effective in abrogating tumor growth
- selectivity of dominant-negative activity [4]: selective for carcinoma cells overexpressing MUC1
- growth arrest and induction of necrosis [4]: growth arrest and the induction of necrosis
- TNFα-induced interaction between MUC1-C and NF-κB p65 [5]: blocked
- IL-6-induced targeting of STAT3 and MUC1-C to the MUC1 promoter [6]: inhibited
- interaction between MUC1-CD and NF-κB p65 in vitro [7]: blocked the interaction
- oligomerization of MUC1-CD in vitro (MUC1-CD oligomerization): inhibits
- constitutive activation of the MUC1 promoter (MUC1 promoter): inhibits
- interaction between MUC1-CD and STAT3 in vitro [8]: blocked
- IL-6-induced activation of the pMUC1-Luc reporter (pMUC1-Luc reporter): attenuated
- TNFα-induced Bcl-xL expression [9]: attenuated
- TNFα-induced MUC1 expression [9]: decreased
- IL-6-induced interaction between MUC1-C and STAT3 [10]: blocked

Molecule: MUC1/AQA: control peptide in which the CQC motif was mutated to AQA (SEQ ID NO:62), with poly D-arginine transduction domain (AQARRKNYGQLDIFP; also: poly D-arginine transduction domain, not placed) [reference compound]
- growth arrest and induction of necrosis [4]: not
- interaction between MUC1-CD and NF-κB p65 in vitro [7]: little if any effect
- oligomerization of MUC1-CD in vitro (MUC1-CD oligomerization): did not
- interaction between MUC1-CD and STAT3 in vitro [8]: not
- IL-6-induced interaction between MUC1-C and STAT3 [10]: not

Molecule: GO-207: shorter GO-203 peptide, SEQ ID NO:4 (CQCRRK)
- growth of ZR-75-1 breast carcinoma cells [11]: significant inhibition of growth

Molecule: GO-203: all-dextro form of the shorter MUC1 C-terminal peptide CQCRRKN (SEQ ID NO:53), L-amino acids changed to D-amino acids ([dC][dQ][dC][dR][dR][dK][dN]; cysteine pairing not given here)
- growth of ZR-75-1 breast carcinoma cells [11]: significant inhibition of growth

Molecule: CQCRRKNYGQLDIFP
- inhibiting growth of multiple carcinoma cell lines [12]: active

Molecule: GO-208: shorter GO-203 peptide, SEQ ID NO:50 (CQCRR)
- growth of ZR-75-1 breast carcinoma cells [11]: significant inhibition of growth

Molecule: CC(=O)N[C@@H](C)C(=O)N[C@@H](CCCCN)C(=O)N[C@@H](CCCCN)C(=O)N[C@@H](Cc1ccc(O)cc1)C(=O)N[C@@H](CC(C)C)C(=O)N[C@@]1(C)CCCC=CCCCC2(CCCC=CCCC[C@@](C)(C(=O)N[C@@H](CCCNC(=N)N)C(=O)N[C@@H](CCCCN)C(=O)N[C@@H](CC(N)=O)C(=O)N[C@@H](Cc3ccc(O)cc3)C(N)=O)NC(=O)[C@H](CS)NC(=O)[C@H](CCC(N)=O)NC(=O)[C@H](CS)NC2=O)NC(=O)[C@H](C)NC(=O)[C@H](CC(C)C)NC(=O)[C@H](C)NC1=O (stereo partly shown) [GO-200-2B]
- induction of cell death [13]: significant induction of cell death

Molecule: CQCRRKN [shorter MUC1-C-terminal peptide consisting of L-amino acids]
- killing tumor cells [12]: active

Molecule: GO-209: shorter GO-203 peptide, SEQ ID NO:54 (CQCR)
- growth of ZR-75-1 breast carcinoma cells [11]: significant inhibition of growth

Molecule: drotrecogin alfa
- mortality (severe sepsis): about 25%
